Measured values taken from US20220389013A1, “PYRIDOPYRIMIDINONE COMPOUNDS AND APPLICATIONS THEREOF” (BeBetter Med Inc., priority 2020, published 2022).
Where a name gives a salt, the structure may show the parent alone.

Columns and labels:
H358 (KRAS G12C) = test: Tumor cell proliferation inhibition assay (CellTiter-Glo), H358; format: cell-based, Human; conditions: 10% fetal bovine serum
Method in brief: (§1)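 Growth was read as ATP by CellTiter-Glo luminescence, with inhibition normalised to DMSO (max) and medium-only (min) wells. IC50 came from sigmoidal dose-response fits.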

KRAS-G12C/SOS1 = target: T1, KRAS-G12C/SOS1 (Homo sapiens, UniProt P01116, G12C); test: HTRF KRAS-G12C/SOS1 binding assay; conditions: 2 hours room temperature
T1 construct: purchased Cisbio #63ADK000CB16PEG
T1 sequence (P01116 1-188 isoform P01116-2 G12C): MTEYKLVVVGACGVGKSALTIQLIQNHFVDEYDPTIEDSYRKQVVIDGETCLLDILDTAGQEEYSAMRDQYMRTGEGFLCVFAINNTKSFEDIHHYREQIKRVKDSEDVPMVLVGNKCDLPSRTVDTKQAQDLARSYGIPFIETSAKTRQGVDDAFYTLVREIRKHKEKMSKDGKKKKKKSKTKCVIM
Protocol: 2) Diluted the compound to be tested with diluent into 10× stock solution, starting from a concentration of 10000 nM, diluting in 4-fold gradient and a total of 6 concentration gradients.
After incubated at room temperature for 15 minutes, added pre-mixed 5 uL of anti-Tag1-Tb^3+ and 5 uL of anti-Tag2-XL665. Sealed the plate and incubated at room temperature for 2 hours.
Data were processed by using Graphpad prism software.

MIA-Paca2 (KRAS G12C) = test: Tumor cell proliferation inhibition assay (CellTiter-Glo), MIA-Paca2; format: cell-based, Human; conditions: 10% fetal bovine serum
Method in brief: as §1

H358 xenograft tumor = test: H358 human non-small cell lung cancer subcutaneous mouse xenograft model, anticancer activity; format: in vivo, BALB/c nude mice; conditions: 100 mg/kg, po, qd, 26 days
Protocol: In this experiment, the anticancer activities of compounds 73-1 and 90-1 in the subcutaneous tumor model of H358 human non-small cell lung cancer xenograft mice, and the dose-response relationship of compound 73-1 in inhibiting the growth of H358 xenograft tumors were investigated. […] When H358 cells were cultured to a sufficient number, cells were collected. […] Vernier calipers were used to measure the size of the tumor. The formula for calculating the tumor volume is: tumor volume=(length×width^2)/2, and the formula for calculating the relative tumor proliferation rate T/C value is: T/C (%)=100×ΔT/ΔC (ΔT>0) or T/T (%)=100×ΔT/T0 (ΔT<0). ΔT is the difference of tumor volume in the treatment group, ΔC is the difference of tumor volume in the vehicle control group, and T0 is the tumor volume in the treatment group before administration.
The dosage of the all groups, except the vehicle control group, was 100 mg/kg, 10 mL/kg orally administered by gavage, once a day. […] All the groups were administered continuously for 26 days.

H23 (KRAS G12C) = test: Tumor cell proliferation inhibition assay (CellTiter-Glo), H23; format: cell-based, Human; conditions: Homo sapiens, 72 h, 10% fetal bovine serum
Protocol: The H358, H23 or MIA-Paca2 cells were digested, centrifuged and resuspended, and the cell density was measured with a Scepter automatic cell counter. Cells were diluted to a solution containing 44,000 cells per milliliter, then added to a 96-well culture plate at 90 μL per well. The 96-well plate was placed in a 5% CO2 incubator at 37° C., and after the cells were cultured for 24 hours, different concentrations of the compounds to be tested were added. Cells were incubated with compounds in the presence of 10% fetal bovine serum for 72 hours. The inhibition of cell growth was assessed by measuring ATP levels by using the CellTiter-Glo Luminescent Cell Viability Assay Kit (details in manufacturer's instructions). In brief, 30 μL of CellTiter-Glo reagent was added to each well and the plate was shaken for 10 minutes to induce cell lysis, then the fluorescent signal was detected and recorded with a Fluoroskan Ascent FL (Thermo). Maximum signal values were obtained from cells treated with DMSO for 72 hours. Minimum signal values were obtained with medium only (zero cell number). Inhibition rate %=(maximum signal value-compound signal value)/(maximum signal value-minimum signal value)×100%. Data were processed by using Graphpad prism5 software. IC50 values were calculated using a sigmoidal dose-response curve.

[1] = Caco-2 cell transmembrane transport experiment; conditions: human; for efflux ratio at 90 min, 10 μM: Caco-2, pH 7.4; for Papp B→A at 90 min, 10 μM: basolateral to apical
Text: (§2) In this experiment, a monolayer of Caco-2 cells was used to assess drug penetration. […] The apparent permeability coefficient from apical to basolateral (Papp A-B) and the basolateral to apical permeability coefficient (Papp B-A) of compounds represent the ability of the compound to be transported in both directions, respectively.
(§3) Apparent permeability coefficient (Papp)=(the volume of the receiver chamber/the filter surface area×culture time))×(the drug concentration of receiver chamber at the end of culture/(the drug concentration of donor chamber at the initial culture×dilution factor)
(§4) In this experiment, Millipore cell culture plates (PSHT 010 R5): membrane area=0.7 cm^2, recipient side volume=0.8 mL (A-to-B) or 0.4 mL (B-to-A), incubation time=90 minutes.

[2] = Pharmacokinetic (PK) experiment in rats by gavage; format: in vivo; conditions: rat, plasma, po, male SD rats, 20 mg/kg; for AUC(0-t): read-out: AUC0-24
in vitro = conditions: human; for efflux ratio at 90 min, 10 μM: Caco-2, pH 7.4
Text: as §2, §3, §4

[3] = Caco-2, pH 7.4, Papp A-B Sample_01, 10 μM, pH 7.4, 37° C., 90 min, apical to basolateral
[4] = Caco-2, pH 7.4, Papp A-B Sample_02, 10 μM, pH 7.4, 37° C., 90 min, apical to basolateral
[5] = Caco-2, pH 7.4, Papp A-B mean value, 10 μM, pH 7.4, 37° C., 90 min, apical to basolateral
[6] = Caco-2, pH 7.4, Papp B-A Sample_01, 10 μM, pH 7.4, 37° C., 90 min
[7] = Caco-2, pH 7.4, Papp B-A Sample_02, 10 μM, pH 7.4, 37° C., 90 min
[8] = Caco-2, pH 7.4, Papp B-A mean value, 10 μM, pH 7.4, 37° C., 90 min
[9] = Caco-2, pH 7.4, apparent permeability coefficient Papp A-B, Caco-2
[10] = Caco-2, pH 7.4, Papp A-B Sample_01
[11] = Caco-2, pH 7.4, Papp A-B Sample_02
[12] = Caco-2, pH 7.4, Papp A-B mean value
[13] = Caco-2, pH 7.4, Papp B-A Sample_01
[14] = Caco-2, pH 7.4, Papp B-A Sample_02
[15] = Caco-2, pH 7.4, Papp B-A mean value

SMILES | IC50 (H358 (KRAS G12C); Homo sapiens, NCI-H358, 72 h) [nM] | IC50 (KRAS-G12C/SOS1) [nM] | IC50 (MIA-Paca2 (KRAS G12C); Homo sapiens, MIA PaCa-2, 72 h) [nM] | melting point [°C] | IC50 (H23 (KRAS G12C)) [nM] | efflux ratio at 90 min, 10 μM [1] | Papp A→B at 90 min, 10 μM [1, 3] [×10⁻⁶ cm/s] | Papp A→B at 90 min, 10 μM [1, 4] [×10⁻⁶ cm/s] | Papp A→B at 90 min, 10 μM [1, 5] [×10⁻⁶ cm/s] | Papp B→A at 90 min, 10 μM [1, 6] [×10⁻⁶ cm/s] | Papp B→A at 90 min, 10 μM [1, 7] [×10⁻⁶ cm/s] | Papp B→A at 90 min, 10 μM [1, 8] [×10⁻⁶ cm/s] | Papp A→B at 90 min, 10 μM [1, 9] [×10⁻⁶ cm/s] | AUC(0-inf) [2] [ng·h/mL] | Cmax [2] [ng/mL] | Tmax [2] [h] | half-life [2] [h] | AUC(0-t) [2] [ng·h/mL] | also measured
C=CC(=O)N1C[C@H](C)N(c2nc(=O)n(-c3c(C)ccnc3C(C)C)c3nc(-c4c(F)ccc5ccoc45)c(Cl)cc23)C[C@H]1C (single isomer, unassigned) [Compound 90-1] | < 10 | < 50 | < 10 | 175 to 177 | < 10 | 1.08 | 20.1 | 20.4 | 20.2 | 18.6 | 25.2 | 21.9 | > 10 | 13800 | 3720 | 1.33 | 3.26 | 13800 | Changes of body weight (%) (H358 xenograft tumor): 23.3%; tumor suppressor T/C value (%) (H358 xenograft tumor): −99.5%
C=CC(=O)N1C[C@H](C)N(c2nc(=O)n(-c3c(C)ccnc3C(C)C)c3nc(-c4c(F)c(F)cc5ccoc45)c(F)cc23)C[C@H]1C (single isomer, unassigned) [Compound 91-1] | 10 to 50 | 100 to 500 | 10 to 50 | 156 to 158 | < 10 | – | – | – | – | – | – | – | – | 9710 | 2970 | 1.17 | 2.72 | 9680 | –
C=CC(=O)N1CCN(c2nc(=O)n(-c3c(C)ccnc3C(C)C)c3nc(-c4c(F)c(F)cc5ccoc45)c(Cl)cc23)[C@@H](C)C1 (single isomer, unassigned) [Compound 103-1] | < 10 | < 50 | < 10 | – | < 10 | 2.08 | 12.1 | 10.7 | 11.4 | 19.7 | 27.8 | 23.7 | > 10 | 6240 | 2700 | 1 | 6.03 | 6190 | –
C=CC(=O)N1C[C@H](C)N(c2nc(=O)n(-c3c(C)ccnc3C(C)C)c3nc(-c4c(F)c(F)cc5ccoc45)c(Cl)cc23)C[C@H]1C (single isomer, unassigned) [Compound 104-1] | < 10 | < 50 | 10 to 50 | – | < 10 | 1.92 | 11.2 | 10.4 | 10.8 | 22.1 | 19.5 | 20.8 | > 10 | 10500 | 2590 | 1 | 4.35 | 10300 | –
C=CC(=O)N1C[C@H](C)N(c2nc(=O)n(-c3c(C)ccnc3C(C)C)c3nc(-c4c(F)ccc5ccoc45)c(Cl)cc23)C[C@H]1C [Compound 90, 4-((2S,5R)-4-acryloyl-2,5-dimethylpiperazin-1-yl)-6-chloro-7-(6-fluorobenzofuran-7-yl)-1-(2-isopropyl-4-methylpyridin-3-yl)pyrido[2,3-d]pyrimidin-2(1H)-one] | – | 50 to 100 | – | 167 to 169 | < 10 | – | – | – | – | – | – | – | – | 20400 | 5610 | 1 | 5.54 | 20100 | IC50 (H358 (KRAS G12C); 72 hours): < 10 nM; IC50 (MIA-Paca2 (KRAS G12C); 72 hours): 10 to 50 nM
CC[C@H]1OC(=O)[C@H](C)[C@@H](O[C@H]2C[C@@](C)(OC)[C@@H](O)[C@H](C)O2)[C@H](C)[C@@H](O[C@@H]2O[C@H](C)C[C@H](N(C)C)[C@H]2O)[C@](C)(O)C[C@@H](C)C(=O)[C@H](C)[C@@H](O)[C@]1(C)O [Erythromycin] | – | – | – | – | – | – | – | – | – | – | – | – | – | – | – | – | – | – | efflux ratio at 90 min, 10 μM (in vitro): 30.6; Papp A→B at 90 min, 10 μM (in vitro; [10]): 0.46 ×10⁻⁶ cm/s; Papp A→B at 90 min, 10 μM (in vitro; [11]): 0.5 ×10⁻⁶ cm/s; Papp A→B at 90 min, 10 μM (in vitro; [12]): 0.48 ×10⁻⁶ cm/s; Papp B→A at 90 min, 10 μM (in vitro; [13]): 13.8 ×10⁻⁶ cm/s; Papp B→A at 90 min, 10 μM (in vitro; [14]): 15.5 ×10⁻⁶ cm/s; Papp B→A at 90 min, 10 μM (in vitro; [15]): 14.7 ×10⁻⁶ cm/s
COCCc1ccc(OCC(O)CNC(C)C)cc1 (stereo not shown) [Metoprolol Tartrate] | – | – | – | – | – | – | – | – | – | – | – | – | – | – | – | – | – | – | efflux ratio at 90 min, 10 μM (in vitro): 0.93; Papp A→B at 90 min, 10 μM (in vitro; [10]): 33.3 ×10⁻⁶ cm/s; Papp A→B at 90 min, 10 μM (in vitro; [11]): 36.4 ×10⁻⁶ cm/s; Papp A→B at 90 min, 10 μM (in vitro; [12]): 34.8 ×10⁻⁶ cm/s; Papp B→A at 90 min, 10 μM (in vitro; [13]): 29.4 ×10⁻⁶ cm/s; Papp B→A at 90 min, 10 μM (in vitro; [14]): 35.4 ×10⁻⁶ cm/s; Papp B→A at 90 min, 10 μM (in vitro; [15]): 32.4 ×10⁻⁶ cm/s
